According to ChEMBL document CHEMBL3991601, “The target landscape of clinical kinase drugs” (Science, 2017):
Activity calls are given as the source filed them.

Experiments:
[1] = biological target: Serine/threonine-protein kinase/endoribonuclease IRE2 (Homo sapiens, UniProt Q76MJ5)
[2] = biological target: MAP kinase-activated protein kinase 2 (Homo sapiens, UniProt P49137)
[3] = biological target: T1, cGMP-dependent protein kinase 1 (Homo sapiens, UniProt Q13976)
T1 sequence (Q13976 whole entry): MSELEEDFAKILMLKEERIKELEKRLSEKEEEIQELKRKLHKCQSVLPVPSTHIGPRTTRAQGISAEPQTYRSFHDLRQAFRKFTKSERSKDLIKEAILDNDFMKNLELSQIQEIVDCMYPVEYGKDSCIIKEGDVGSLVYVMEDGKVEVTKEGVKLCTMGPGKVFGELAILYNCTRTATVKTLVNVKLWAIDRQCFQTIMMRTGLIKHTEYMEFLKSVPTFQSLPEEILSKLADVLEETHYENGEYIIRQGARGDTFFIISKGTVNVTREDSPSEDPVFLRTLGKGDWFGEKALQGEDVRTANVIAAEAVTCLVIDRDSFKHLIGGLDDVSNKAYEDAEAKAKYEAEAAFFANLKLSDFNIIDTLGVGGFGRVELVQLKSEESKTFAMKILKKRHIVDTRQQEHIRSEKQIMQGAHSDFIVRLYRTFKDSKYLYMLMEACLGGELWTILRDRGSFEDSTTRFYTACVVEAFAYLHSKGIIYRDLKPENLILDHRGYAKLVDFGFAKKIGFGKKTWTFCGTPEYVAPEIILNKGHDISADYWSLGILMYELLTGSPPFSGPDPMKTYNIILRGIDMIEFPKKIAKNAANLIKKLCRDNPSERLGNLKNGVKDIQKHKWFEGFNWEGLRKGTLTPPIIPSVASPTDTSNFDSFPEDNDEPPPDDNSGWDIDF

[4] = biological target: T2, Serine/threonine-protein kinase TBK1 (Homo sapiens, UniProt Q9UHD2)
T2 sequence (Q9UHD2 whole entry): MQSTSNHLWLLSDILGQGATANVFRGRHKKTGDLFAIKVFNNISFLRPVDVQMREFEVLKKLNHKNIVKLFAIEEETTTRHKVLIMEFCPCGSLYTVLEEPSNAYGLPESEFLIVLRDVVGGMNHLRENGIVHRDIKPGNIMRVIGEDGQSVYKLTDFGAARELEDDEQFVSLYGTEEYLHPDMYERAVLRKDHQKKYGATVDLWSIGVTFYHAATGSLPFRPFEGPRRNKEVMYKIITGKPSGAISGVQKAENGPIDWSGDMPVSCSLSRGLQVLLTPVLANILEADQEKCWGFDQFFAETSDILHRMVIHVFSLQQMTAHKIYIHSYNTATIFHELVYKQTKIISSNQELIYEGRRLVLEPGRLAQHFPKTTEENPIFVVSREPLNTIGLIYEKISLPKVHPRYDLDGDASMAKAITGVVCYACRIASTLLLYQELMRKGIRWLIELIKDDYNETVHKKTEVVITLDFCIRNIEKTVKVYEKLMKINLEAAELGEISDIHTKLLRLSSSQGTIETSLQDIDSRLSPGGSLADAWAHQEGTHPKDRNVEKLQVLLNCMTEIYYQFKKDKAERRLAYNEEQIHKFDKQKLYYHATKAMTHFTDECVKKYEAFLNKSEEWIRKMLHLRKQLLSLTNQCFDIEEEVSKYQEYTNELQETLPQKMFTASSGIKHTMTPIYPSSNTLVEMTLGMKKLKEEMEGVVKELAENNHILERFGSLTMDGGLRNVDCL

[5] = biological target: T3, Acyl-CoA dehydrogenase family member 11 (Homo sapiens, UniProt Q709F0)
T3 sequence (Q709F0 whole entry): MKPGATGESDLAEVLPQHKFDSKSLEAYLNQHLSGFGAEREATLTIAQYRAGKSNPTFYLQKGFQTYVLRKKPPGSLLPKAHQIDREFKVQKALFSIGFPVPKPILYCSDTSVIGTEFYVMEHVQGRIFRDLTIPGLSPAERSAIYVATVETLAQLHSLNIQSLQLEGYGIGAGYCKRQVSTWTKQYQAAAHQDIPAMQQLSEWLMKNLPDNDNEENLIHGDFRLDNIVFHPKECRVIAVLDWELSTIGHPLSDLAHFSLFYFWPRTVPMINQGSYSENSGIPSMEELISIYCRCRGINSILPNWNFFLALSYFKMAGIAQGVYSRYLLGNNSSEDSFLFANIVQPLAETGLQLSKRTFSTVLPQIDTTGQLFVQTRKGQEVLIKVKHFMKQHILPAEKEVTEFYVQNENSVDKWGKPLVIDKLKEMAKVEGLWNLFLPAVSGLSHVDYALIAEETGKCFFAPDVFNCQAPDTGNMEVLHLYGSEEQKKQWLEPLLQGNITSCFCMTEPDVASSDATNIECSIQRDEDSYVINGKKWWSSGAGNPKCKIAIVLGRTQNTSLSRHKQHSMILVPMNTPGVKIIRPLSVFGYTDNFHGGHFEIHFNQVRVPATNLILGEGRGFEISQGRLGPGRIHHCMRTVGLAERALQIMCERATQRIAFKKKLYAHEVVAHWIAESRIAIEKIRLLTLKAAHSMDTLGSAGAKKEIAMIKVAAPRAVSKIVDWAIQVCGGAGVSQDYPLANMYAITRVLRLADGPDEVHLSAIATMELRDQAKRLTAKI

[6] = biological target: T4, ATP-dependent RNA helicase DDX1 (Homo sapiens, UniProt Q92499)
T4 sequence (Q92499 whole entry): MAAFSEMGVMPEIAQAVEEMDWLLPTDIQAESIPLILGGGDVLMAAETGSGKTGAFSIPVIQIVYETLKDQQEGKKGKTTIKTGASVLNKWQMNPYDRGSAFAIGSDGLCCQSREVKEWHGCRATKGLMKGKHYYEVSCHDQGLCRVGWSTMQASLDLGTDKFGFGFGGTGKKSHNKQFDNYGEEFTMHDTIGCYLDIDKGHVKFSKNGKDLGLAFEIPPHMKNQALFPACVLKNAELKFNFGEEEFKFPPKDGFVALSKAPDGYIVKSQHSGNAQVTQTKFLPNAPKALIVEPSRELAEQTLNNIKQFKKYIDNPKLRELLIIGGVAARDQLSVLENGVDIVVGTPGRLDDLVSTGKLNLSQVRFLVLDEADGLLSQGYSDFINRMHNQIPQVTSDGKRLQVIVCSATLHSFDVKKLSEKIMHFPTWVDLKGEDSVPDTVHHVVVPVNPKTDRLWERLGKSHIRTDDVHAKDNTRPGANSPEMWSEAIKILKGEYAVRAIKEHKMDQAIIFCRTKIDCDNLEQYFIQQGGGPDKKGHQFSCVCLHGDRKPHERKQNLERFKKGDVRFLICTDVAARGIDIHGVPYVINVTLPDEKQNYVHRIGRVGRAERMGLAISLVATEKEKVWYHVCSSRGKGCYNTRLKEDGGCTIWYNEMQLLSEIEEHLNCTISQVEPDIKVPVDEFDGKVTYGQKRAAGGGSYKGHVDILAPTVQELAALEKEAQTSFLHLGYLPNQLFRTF
Note: in the data inactive means no Kd found up to 30 µM.

MAP kinase-activated protein kinase 2, sequence (P49137 whole entry): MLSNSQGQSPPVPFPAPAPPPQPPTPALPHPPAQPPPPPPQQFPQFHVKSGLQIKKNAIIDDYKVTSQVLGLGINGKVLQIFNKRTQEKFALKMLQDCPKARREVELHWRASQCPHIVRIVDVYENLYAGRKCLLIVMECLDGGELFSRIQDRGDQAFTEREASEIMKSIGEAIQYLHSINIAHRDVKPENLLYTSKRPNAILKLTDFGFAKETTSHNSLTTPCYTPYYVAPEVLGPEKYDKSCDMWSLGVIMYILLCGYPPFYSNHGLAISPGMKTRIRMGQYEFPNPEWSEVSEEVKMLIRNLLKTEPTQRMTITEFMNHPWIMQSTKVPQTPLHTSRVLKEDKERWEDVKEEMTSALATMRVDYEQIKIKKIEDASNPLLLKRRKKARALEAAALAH
Serine/threonine-protein kinase/endoribonuclease IRE2, sequence (Q76MJ5 whole entry): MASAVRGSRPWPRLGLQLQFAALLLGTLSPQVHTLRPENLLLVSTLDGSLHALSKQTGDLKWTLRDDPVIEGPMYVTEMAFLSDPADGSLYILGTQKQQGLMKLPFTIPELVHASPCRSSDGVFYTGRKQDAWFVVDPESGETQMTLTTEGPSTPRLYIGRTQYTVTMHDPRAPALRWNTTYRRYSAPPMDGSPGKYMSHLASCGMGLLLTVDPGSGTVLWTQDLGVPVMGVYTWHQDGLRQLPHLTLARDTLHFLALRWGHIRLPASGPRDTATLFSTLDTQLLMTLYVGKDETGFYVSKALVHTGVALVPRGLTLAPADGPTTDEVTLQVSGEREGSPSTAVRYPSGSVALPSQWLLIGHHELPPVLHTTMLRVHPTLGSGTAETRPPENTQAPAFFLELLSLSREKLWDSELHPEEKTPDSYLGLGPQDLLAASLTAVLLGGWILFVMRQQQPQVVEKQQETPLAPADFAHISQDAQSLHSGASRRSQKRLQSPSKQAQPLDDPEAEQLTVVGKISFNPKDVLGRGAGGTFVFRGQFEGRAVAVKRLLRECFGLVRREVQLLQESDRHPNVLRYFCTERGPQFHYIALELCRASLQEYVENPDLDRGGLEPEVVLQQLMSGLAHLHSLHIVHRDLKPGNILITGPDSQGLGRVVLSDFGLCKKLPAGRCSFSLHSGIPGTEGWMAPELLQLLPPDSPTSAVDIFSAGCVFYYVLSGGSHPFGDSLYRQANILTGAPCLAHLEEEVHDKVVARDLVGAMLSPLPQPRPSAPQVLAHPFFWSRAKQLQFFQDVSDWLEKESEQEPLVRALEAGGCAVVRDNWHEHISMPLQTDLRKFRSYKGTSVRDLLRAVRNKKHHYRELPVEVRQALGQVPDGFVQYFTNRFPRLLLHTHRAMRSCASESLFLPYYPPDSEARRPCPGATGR

| SMILES | Kd [1] | Kd [3] | Kd [5] | Kd [6] | Kd [2] | Kd [4] |
| --- | --- | --- | --- | --- | --- | --- |
| O=c1[nH]c([C@@H]2CCCN2)nc2c1oc1ccc(Cl)cc12 | > 30 µM (inactive) | > 30 µM (inactive) |  |  | > 30 µM (inactive) | > 30 µM (inactive) |
| C=CCn1c(=O)c2cnc(Nc3ccc(N4CCN(C)CC4)cc3)nc2n1-c1cccc(C(C)(C)O)n1 [ADAVOSERTIB] | > 30 µM (inactive) | > 30 µM (inactive) | > 30 µM (inactive) | > 30 µM (inactive) | > 30 µM (inactive) |  |
| CN(C)C/C=C/C(=O)Nc1cc2c(Nc3ccc(F)c(Cl)c3)ncnc2cc1O[C@H]1CCOC1 [AFATINIB] | > 30 µM (inactive) |  | > 30 µM (inactive) | > 30 µM (inactive) |  |  |
| O=S(=O)(c1cccc2cnccc12)N1CCCNCC1 [FASUDIL] | > 30 µM (inactive) |  | > 30 µM (inactive) | > 30 µM (inactive) |  |  |
| C[C@]1(O)C[C@@H](c2nc(-c3ccc4ccc(-c5ccccc5)nc4c3)c3c(N)nccn32)C1 [LINSITINIB] | > 30 µM (inactive) |  | > 30 µM (inactive) | > 30 µM (inactive) |  | > 30 µM (inactive) |
| N#CCNC(=O)c1ccc(-c2ccnc(Nc3ccc(N4CCOCC4)cc3)n2)cc1 [MOMELOTINIB] | > 30 µM (inactive) | > 30 µM (inactive) | > 30 µM (inactive) | > 30 µM (inactive) | > 30 µM (inactive) |  |
| C=CC(=O)Nc1cc(Nc2nccc(-c3cn(C)c4ccccc34)n2)c(OC)cc1N(C)CCN(C)C [OSIMERTINIB] | > 30 µM (inactive) | > 30 µM (inactive) |  | > 30 µM (inactive) | > 30 µM (inactive) | > 30 µM (inactive) |
| CN(c1ncccc1CNc1nc(Nc2ccc3c(c2)CC(=O)N3)ncc1C(F)(F)F)S(C)(=O)=O [PF-00562271] | > 30 µM (inactive) |  | > 30 µM (inactive) | > 30 µM (inactive) |  |  |
| CC(C)CC(=O)Nc1[nH]nc2c1CN(C(=O)C1CCN(C)CC1)C2(C)C [PHA-793887] | > 30 µM (inactive) |  | > 30 µM (inactive) | > 30 µM (inactive) | > 30 µM (inactive) | > 30 µM (inactive) |

Now from value to molecule, other results behind:

| Kd [1] | Kd [3] | Kd [5] | Kd [6] | SMILES | Kd [2] | Kd [4] |
| --- | --- | --- | --- | --- | --- | --- |
| > 30 µM (inactive) | > 30 µM (inactive) | > 30 µM (inactive) | > 30 µM (inactive) | CCN(CCCOc1ccc2c(Nc3cc(CC(=O)Nc4cccc(F)c4)n[nH]3)ncnc2c1)CCOP(=O)(O)O [BARASERTIB] | > 30 µM (inactive) |  |
|  |  | > 30 µM (inactive) | > 30 µM (inactive) | C[C@@]1(C(=O)Nc2ccc(F)nc2)CCCN1c1nc(Nc2cc(C3CC3)n[nH]2)c2cccn2n1 [BMS-754807] |  |  |
| > 30 µM (inactive) |  | > 30 µM (inactive) | > 30 µM (inactive) | COc1cc2c(Oc3ccc4[nH]c(C)cc4c3F)ncnc2cc1OCCCN1CCCC1 [CEDIRANIB] |  |  |
| > 30 µM (inactive) | > 30 µM (inactive) | > 30 µM (inactive) | > 30 µM (inactive) | Cn1c(=O)n(-c2ccc(C(C)(C)C#N)cc2)c2c3cc(-c4cnc5ccccc5c4)ccc3ncc21 [DACTOLISIB] | > 30 µM (inactive) |  |
| > 30 µM (inactive) | > 30 µM (inactive) | > 30 µM (inactive) | > 30 µM (inactive) | O=S(=O)(c1cccc2c(O)nccc12)N1CCCNCC1 [HYDROXYFASUDIL] |  | > 30 µM (inactive) |
| > 30 µM (inactive) |  | > 30 µM (inactive) | > 30 µM (inactive) | CC1(C)CNc2cc(NC(=O)c3cccnc3NCc3ccncc3)ccc21 [MOTESANIB] |  |  |
| > 30 µM (inactive) |  | > 30 µM (inactive) | > 30 µM (inactive) | Cn1cnc2c(F)c(Nc3ccc(Br)cc3Cl)c(C(=O)NOCCO)cc21 [SELUMETINIB] |  |  |
| > 30 µM (inactive) | > 30 µM (inactive) |  |  | O=C(O)c1ccc2c(c1)nc(Nc1cccc(Cl)c1)c1ccncc12 [SILMITASERTIB] | 5.3 µM (active) | > 30 µM (inactive) |
| > 30 µM (inactive) |  | > 30 µM (inactive) | > 30 µM (inactive) | COc1cc2c(N3CCN(C(=O)Nc4ccc(OC(C)C)cc4)CC3)ncnc2cc1OCCCN1CCCCC1 [TANDUTINIB] |  |  |
